Results taken from patent US20240158392A1 (Janssen Biotech, Inc., priority 2021, published 2024).

Biological target: SIK2 (Homo sapiens, UniProt Q9H0K1)
Assay: SIK2 Enzymatic Assay High Version 2 (High ATP)
Type: biochemical
Settings: not given
Outline: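 At room temperature, enzyme (6 nM, 2× final) was preincubated with compound for 30 min, then 6 mM ATP and 400 μM HDAC5tide (both 2× final) were added for 2 h. ADP formed was measured by ADP-Glo Max (2 h reagent, 1 h detection) using luminescence.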

SIK2, sequence (Q9H0K1 whole entry, species assumed): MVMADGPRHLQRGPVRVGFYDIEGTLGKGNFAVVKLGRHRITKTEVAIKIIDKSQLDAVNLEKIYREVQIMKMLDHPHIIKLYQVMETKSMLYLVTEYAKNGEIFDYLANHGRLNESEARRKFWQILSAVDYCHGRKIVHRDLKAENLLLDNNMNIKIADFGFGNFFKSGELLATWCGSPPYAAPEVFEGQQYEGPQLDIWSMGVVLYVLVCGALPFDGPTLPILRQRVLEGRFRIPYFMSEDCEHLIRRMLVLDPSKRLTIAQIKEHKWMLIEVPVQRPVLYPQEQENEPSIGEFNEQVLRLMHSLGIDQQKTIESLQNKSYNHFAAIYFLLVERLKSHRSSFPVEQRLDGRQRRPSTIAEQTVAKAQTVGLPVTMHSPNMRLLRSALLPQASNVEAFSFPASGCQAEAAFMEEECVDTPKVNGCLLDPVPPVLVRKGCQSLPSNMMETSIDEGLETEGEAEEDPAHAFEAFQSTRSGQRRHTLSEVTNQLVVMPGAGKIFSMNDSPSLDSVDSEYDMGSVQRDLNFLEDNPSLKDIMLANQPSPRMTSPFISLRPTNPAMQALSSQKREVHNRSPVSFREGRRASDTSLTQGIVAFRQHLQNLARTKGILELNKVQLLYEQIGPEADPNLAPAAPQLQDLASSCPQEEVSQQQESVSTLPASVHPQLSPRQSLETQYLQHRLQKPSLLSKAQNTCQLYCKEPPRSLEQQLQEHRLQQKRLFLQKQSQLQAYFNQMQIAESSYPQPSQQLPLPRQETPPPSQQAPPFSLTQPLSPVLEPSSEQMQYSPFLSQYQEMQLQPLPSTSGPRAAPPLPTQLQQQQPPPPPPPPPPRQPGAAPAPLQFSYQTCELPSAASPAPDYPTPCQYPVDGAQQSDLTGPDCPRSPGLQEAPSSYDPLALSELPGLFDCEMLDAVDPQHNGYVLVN

Row | Structure (SMILES) | IC50
1 | Cc1cc(-c2ccn3nc(Nc4ccc(S(C)(=O)=O)cn4)cc3c2)c(O[C@H]2C[C@H]3COC[C@@H](C2)N3)cn1 [Example 393, 5-[2-methyl-5-[[(1R,5S,7s)-3-oxa-9-azabicyclo[3.3.1]nonan-7-yl]oxy]-4-pyridyl]-N-(5-methylsulfonyl-2-pyridyl)pyrazolo[1,5-a]pyridin-2-amine] | 0.00131 µM
2 | Cc1cc(-c2ccn3nc(Nc4cn(C)nc4C(O)C(F)(F)F)cc3c2)c(O[C@H]2C[C@H]3COC[C@@H](C2)N3C)cn1 (stereo partly drawn) [Example 422, 2,2,2-trifluoro-1-[1-methyl-4-[[5-[2-methyl-5-[[(1S,5R,7s)-9-methyl-3-oxa-9-azabicyclo[3.3.1]nonan-7-yl]oxy]-4-pyridyl]pyrazolo[1,5-a]pyridin-2-yl]amino]pyrazol-3-yl]ethanol] | < 0.000847 µM
3 | [2H]C([2H])([2H])N1CC[C@@H]1COc1cnc(C)cc1-c1ccn2nc(NC(=O)C3CC3)cc2c1 [Example 576, N-[5-[2-methyl-5-[[(2R)-1-(trideuteriomethyl)azetidin-2-yl]methoxy]-4-pyridyl]pyrazolo[1,5-a]pyridin-2-yl]cyclopropanecarboxamide] | 0.0728 µM
4 | Cc1cc(-c2ccn3nc(Nc4cc(C)nc(C)n4)cc3c2)c(OC[C@H]2CC[C@H](O)CO2)cn1 (single isomer, unassigned) [Example 347, (3*S,6*S)-6-[[4-[2-[(2,6-dimethylpyrimidin-4-yl)amino]pyrazolo[1,5-a]pyridin-5-yl]-6-methyl-3-pyridyl]oxymethyl]tetrahydropyran-3-ol] | 0.0352 µM
5 | Cc1cc(-c2ccn3nc(NC(=O)C4CC4)cc3c2)c(O[C@H]2C[C@H]3COC[C@@H](C2)N3C)cn1 [Example 460, N-[5-[2-methyl-5-[[(1S,5R)-9-methyl-3-oxa-9-azabicyclo[3.3.1]nonan-7-yl]oxy]-4-pyridyl]pyrazolo[1,5-a]pyridin-2-yl]cyclopropanecarboxamide] | 0.0413 µM
6 | Cc1cc(-c2ccn3nc(NC(=O)C4CC4)cc3c2)c(OC[C@H]2N(C)CC2(C)C)cn1 [Example 473, N-[5-[2-methyl-5-[[(2S)-1,3,3-trimethylazetidin-2-yl]methoxy]-4-pyridyl]pyrazolo[1,5-a]pyridin-2-yl]cyclopropanecarboxamide] | 0.0182 µM
7 | Cc1cc(-c2ccn3nc(Nc4ccc(C5CC5)nn4)cc3c2)c(O[C@@H]2[C@@H]3CO[C@H]2CN3)cn1 [Example 525, N-(6-cyclopropylpyridazin-3-yl)-5-[2-methyl-5-[[(1S,4S,7R)-2-oxa-5-azabicyclo[2.2.1]heptan-7-yl]oxy]-4-pyridyl]pyrazolo[1,5-a]pyridin-2-amine] | 0.0594 µM
8 | Cc1cc(-c2ccn3nc(Nc4cc(C)nc(C)n4)cc3c2)c(O[C@H]2C[C@H]3COC[C@@H](C2)N3)cn1 [Example 382, N-(2,6-dimethylpyrimidin-4-yl)-5-[2-methyl-5-[[(1S,5R,7s)-3-oxa-9-azabicyclo[3.3.1]nonan-7-yl]oxy]-4-pyridyl]pyrazolo[1,5-a]pyridin-2-amine] | < 0.000847 µM

Same assay, conditions: enzyme 6 nM, 6 mM ATP and 400 μM HDAC5tide (each 2× final concentration); 30 minutes pre-incubation, 2 hours; ADP-Glo Max luminescence; read-out: SIK2 high ATP IC50 (μM) (Test Example 2)

Row | Structure (SMILES) | IC50
9 | Cc1cc(-c2ccn3nc(NC(=O)C4CC4)cc3c2)c(OC[C@@]23CN[C@@H](CO2)C3)cn1 [Example 248, N-[5-[2-methyl-5-[[(1R,4R)-5-oxa-2-azabicyclo[2.2.1]heptan-4-yl]methoxy]-4-pyridyl]pyrazolo[1,5-a]pyridin-2-yl]cyclopropanecarboxamide] | 0.00712 µM
10 | Cc1cc(-c2ccn3nc(Nc4cc(C)nc(C)n4)cc3c2)c(OC2CCC(C#N)CC2)cn1 (centres unmarked) [Example 552, 4-[[4-[2-[(2,6-dimethylpyrimidin-4-yl)amino]pyrazolo[1,5-a]pyridin-5-yl]-6-methyl-3-pyridyl]oxy]cyclohexanecarbonitrile] | 0.00378 µM
11 | Cc1cc(Nc2cc3cc(-c4cc(Cl)ncc4OC[C@@H]4CNCCO4)ccn3n2)nc(C)n1 [Example 497, 5-[2-chloro-5-[[(2S)-morpholin-2-yl]methoxy]-4-pyridyl]-N-(2,6-dimethylpyrimidin-4-yl)pyrazolo[1,5-a]pyridin-2-amine] | 0.0176 µM
12 | Cc1cc(-c2ccn3nc(Nc4cnn(C)c4)cc3c2)c(OC[C@@H]2CNCCO2)cn1 [Example 128, 5-[2-methyl-5-[[(2S)-morpholin-2-yl]methoxy]-4-pyridyl]-N-(1-methylpyrazol-4-yl)pyrazolo[1,5-a]pyridin-2-amine] | 0.0249 µM
13 | CCC1(COc2cnc(C)cc2-c2ccn3nc(Nc4cc(C)nc(C)n4)cc3c2)COC1 [Example 273, N-(2,6-dimethylpyrimidin-4-yl)-5-[5-[(3-ethyloxetan-3-yl)methoxy]-2-methyl-4-pyridyl]pyrazolo[1,5-a]pyridin-2-amine] | 0.037 µM
14 | CC(C)(C#N)COc1cnc(OC(F)F)cc1-c1ccn2nc(Nc3cc4n(n3)CCNC4)cc2c1 [Example 706, 3-[[6-(difluoromethoxy)-4-[2-(4,5,6,7-tetrahydropyrazolo[1,5-a]pyrazin-2-ylamino)pyrazolo[1,5-a]pyridin-5-yl]-3-pyridyl]oxy]-2,2-dimethyl-propanenitrile] | 0.0755 µM
15 | Cc1cc(Nc2cc3cc(-c4cc(OC(F)(F)F)ccc4OCC(C)(C)C#N)ccn3n2)nc(C)n1 [Example 754, 3-[2-[2-[(2,6-dimethylpyrimidin-4-yl)amino]pyrazolo[1,5-a]pyridin-5-yl]-4-(trifluoromethoxy)phenoxy]-2,2-dimethyl-propanenitrile] | 0.071 µM
16 | Cc1cc(-c2ccn3nc(Nc4cc(C)nc(C)n4)cc3c2)c(OC[C@@H]2CN(S(C)(=O)=O)CCO2)cn1 [Example 629, N-(2,6-dimethylpyrimidin-4-yl)-5-[2-methyl-5-[[(2S)-4-methylsulfonylmorpholin-2-yl]methoxy]-4-pyridyl]pyrazolo[1,5-a]pyridin-2-amine] | 0.175 µM
17 | Cc1cc(-c2ccn3nc(Nc4cc(C)c(=O)n(C5CC5)n4)cc3c2)c(OC[C@H]2OCC[C@@H]2O)cn1 [Example 317, 2-cyclopropyl-6-[[5-[5-[[(2R,3S)-3-hydroxytetrahydrofuran-2-yl]methoxy]-2-methyl-4-pyridyl]pyrazolo[1,5-a]pyridin-2-yl]amino]-4-methyl-pyridazin-3-one] | 0.0017 µM
18 | Cc1cc(-c2ccn3nc(Nc4cc(C(=O)N(C)C)cc(C)n4)cc3c2)c(OCC(C)(C)O)cn1 [Example 633, 2-[[5-[5-(2-hydroxy-2-methyl-propoxy)-2-methyl-4-pyridyl]pyrazolo[1,5-a]pyridin-2-yl]amino]-N,N,6-trimethyl-pyridine-4-carboxamide] | 0.105 µM
19 | CCNC(=O)c1c(OC)cc(Nc2cc3cc(-c4cc(C)ncc4O[C@H]4CC[C@H](O)CC4)ccn3n2)cc1OC [Example 243, N-ethyl-4-[[5-[5-(4-hydroxycyclohexoxy)-2-methyl-4-pyridyl]pyrazolo[1,5-a]pyridin-2-yl]amino]-2,6-dimethoxy-benzamide] | 0.0351 µM
20 | COc1cc(Nc2cc3cc(-c4cc(C)ncc4OCC(C)(C)O)ccn3n2)cc(OC(F)F)c1C(=O)NC1CC1 [Example 648, N-cyclopropyl-2-(difluoromethoxy)-4-[[5-[5-(2-hydroxy-2-methyl-propoxy)-2-methyl-4-pyridyl]pyrazolo[1,5-a]pyridin-2-yl]amino]-6-methoxy-benzamide] | 0.0887 µM
21 | Cc1cc(-c2ccn3nc(Nc4cc(C)nc(C)n4)cc3c2)c(OCC2(C)COC2)cn1 [Example 546, N-(2,6-dimethylpyrimidin-4-yl)-5-[2-methyl-5-[(3-methyloxetan-3-yl)methoxy]-4-pyridyl]pyrazolo[1,5-a]pyridin-2-amine] | 0.0239 µM
22 | Cc1cc(Nc2cc3cc(-c4cc(OCC#N)ncc4OCC(C)(C)C#N)ccn3n2)nc(C)n1 [Example 672, 3-[[6-(cyanomethoxy)-4-[2-[(2,6-dimethylpyrimidin-4-yl)amino]pyrazolo[1,5-a]pyridin-5-yl]-3-pyridyl]oxy]-2,2-dimethyl-propanenitrile] | 0.004 µM
23 | Cc1cnc(OC[C@@H]2CNCCO2)c(-c2ccn3nc(NC(=O)C4CC4)cc3c2)c1 [Example 474, N-[5-[5-methyl-2-[[(2S)-morpholin-2-yl]methoxy]-3-pyridyl]pyrazolo[1,5-a]pyridin-2-yl]cyclopropanecarboxamide] | 0.0431 µM
24 | CC(C)(C#N)COc1cnc(OCC(F)F)cc1-c1ccn2nc(Nc3cccnn3)cc2c1 [Example 688, 3-[[6-(2,2-difluoroethoxy)-4-[2-(pyridazin-3-ylamino)pyrazolo[1,5-a]pyridin-5-yl]-3-pyridyl]oxy]-2,2-dimethyl-propanenitrile] | 0.00121 µM
25 | Cc1cc(-c2cn3cc(NC(=O)C4CC4)nc3cn2)c(O[C@H]2CC[C@H](O)CC2)cn1 [Example 653, N-[6-[5-(4-hydroxycyclohexoxy)-2-methyl-4-pyridyl]imidazo[1,2-a]pyrazin-2-yl]cyclopropanecarboxamide] | 0.136 µM
26 | CC(C)(C#N)COc1cnc(OC(F)F)cc1-c1ccn2nc(Nc3ccc(CN4CCOCC4)cn3)cc2c1 [Example 695, 3-[[6-(difluoromethoxy)-4-[2-[[5-(morpholinomethyl)-2-pyridyl]amino]pyrazolo[1,5-a]pyridin-5-yl]-3-pyridyl]oxy]-2,2-dimethyl-propanenitrile] | 0.117 µM
27 | Cc1cc(-c2ccn3nc(NC(=O)C4CC4)cc3c2)c(OC[C@@]2(C)CCN2C)cn1 (single isomer, unassigned) [Example 604, (*R)—N-[5-[5-[(1,2-dimethylazetidin-2-yl)methoxy]-2-methyl-4-pyridyl]pyrazolo[1,5-a]pyridin-2-yl]cyclopropanecarboxamide] | 0.203 µM
28 | Cc1cnc(Nc2cc3cc(-c4cc(OC(F)F)ncc4OCC(C)(C)C#N)ccn3n2)cn1 [Example 709, 3-[[6-(difluoromethoxy)-4-[2-[(5-methylpyrazin-2-yl)amino]pyrazolo[1,5-a]pyridin-5-yl]-3-pyridyl]oxy]-2,2-dimethyl-propanenitrile] | 0.00302 µM
29 | Cc1cc(-c2ccn3nc(Nc4nccc(C)c4F)cc3c2)c(OCC(C)(C)O)cn1 [Example 652, 1-[[4-[2-[(3-fluoro-4-methyl-2-pyridyl)amino]pyrazolo[1,5-a]pyridin-5-yl]-6-methyl-3-pyridyl]oxy]-2-methyl-propan-2-ol] | 0.557 µM
